Test results taken from patent EP0314302A2, “Herbicidal o-carbomethoxy-sulfonylureas” (E.I. DU PONT DE NEMOURS AND COMPANY, priority 1987, dated 1989).

Assays:
Chickweed = assay: Test 10 postemergence safety to crops and weed control; assay type: in vivo, Stellaria media; conditions: 16 g/ha, scale 0-100
Method: The object of these tests was to evaluate the compound of this invention for postemergence safety to crops and weed control. Seedling and budded Macedine grapes were grown in 11.4-cm pots. Flax, green foxtail (Setaria viridis), "Morex" barley, wild oats (Avena fatua), "Era" wheat, annual ryegrass (Lolium multiflorum), wild radish (Raphanus raphanistrum), rape, sunflower, chickweed (Stellaria media) and wild buckwheat (Polygonum convolvulus) were seeded in windowsill pots.
The plants were sprayed postemergence with Compound I in a non-phytotoxic solvent. Plants were visually rated 15 and 27 days after treatment (DAT). Injury and weed control ratings were based on the scale of 0 to 100 where 0 = no effect, 20 minimal control and 100 = complete control.

Yellow nutsedge = assay: Test 11 citrus pots, preemergence to the weeds; assay type: in vivo, Cyperus esculentus; conditions: Preemergence 32 g/ha; 0.25% X-77 surfactant; scale 0-100
Method: (§1) Budded citrus seedlings were planted in 30-liter plastic pots which were also seeded with sandbur, guineagrass, narrowleaf panicum, common ragweed, yellow nutsedge, purple nutsedge and bindweed. Compound I was applied preemergence and postemergence to the weeds. Treatments were sprayed to simulate the trunk-to-trunk herbicide application method used in some citrus groves. The compound was also applied postemergence to weeds grown in windowsill flats. The flats were filled with planting medium and seeded with morningglory (Ipomoea spp.). purple nutsedge (Cyperus rotundus), pigweed (Amaranthus spp.), bindweed (Convolvulus spp.), narrowleaf panicum (Panicum maximum), common ragweed (Ambrosia artemisiifolia), sandbur (Cenchrus echinatus), itchgrass (Rottboellia exaltata), johnsongrass (Sorghum halepense), guineagrass (Panicum maximum), smooth crabgrass (Digitaria ischaemum), broadleaf signalgrass (Brachiaria platyphylla), bermudagrass (Cynodon dactylon), goosegrass (Eleusine indica), large crabgrass (Digitaria sanguinalis) and yellow nutsedge (Cyperus esculentus).
(§2) The compound was formulated and sprayed with 0.25% X-77 surfactant in water. Plants were visually rated 21 and 29 days after treatment and compared with appropriate controls. Injury ratings were based on the scale of 0 to 100, where 0 indicates no effect, 20 indicates minimum effect and 100 indicates complete control. […]

Kentucky bluegrass = assay: Test 7 postemergence; assay type: in vivo, Poa pratensis; conditions: scale 0-100
Method: (§3) Individual 11.4-cm plastic pots filled with planting medium were seeded with rape, wild radish (Raphanus raphanistruna). tansy mustard (Descurainia pinnata), ball mustard (Neslia paniculata), black mustard (Brassica nigra), yellow mustard, brown mustard, lentils, safflower, flax, sunflower, peanut, vetch, alfalfa, field bean, pea, violet (Viola spp), Kochia (Kochia spp), Russian thistle (Salsola spp), Matricaria spp, groundsel (Senecio spp), shepherdspurse (Capsella bursa-pastoris), nightshade (Solanum spp), sowthistle (Sonchus spp), sugar beet, wheat, "Bonanza" barley and "Morex" barley, Kentucky bluegrass (Poa pratensis), red clover (Trifolium pratense), dandelion (Taraxacum spp) and buckhorn plantain (Plantago lanceolata).
(§4) Plants were treated postemergence with the compound formulated with a non-phytotoxic carrier. Plants were visually rated 18 days after treatment (DAT). Response ratings were based on the scale of 0 to 100 where 0 = no effect, 20 = minimal injury and 100 = complete control.

Johnsongrass = assay: Test 11 windowsill flats, postemergence; assay type: in vivo, Sorghum halepense; conditions: Postemergence 32 g/ha, 0.25% X-77 surfactant, scale 0-100
Method: as §1, §2

Ball mustard = assay: Test 7 postemergence; assay type: in vivo, Neslia paniculata; conditions: scale 0-100
Method: as §3, §4

Purple nutsedge = assay: Test 11 citrus pots, preemergence to the weeds; assay type: in vivo, Cyperus rotundus; conditions: Preemergence 32 g/ha; 0.25% X-77 surfactant; scale 0-100
Method: as §1, §2

Large Crabgrass = assay: Test 5 sugarcane injury and weed control, postemergence; assay type: in vivo, Digitaria sanguinalis; conditions: scale 0-100
Method: Sugarcane (Saccharum spp.) cuttings which had been pre-sprouted were planted in 15-cm plastic pots. Narrowleaf panicum (Panicum maximum), large crabgrass (Digitaria sanguinalis), guineagrass (P. maximum) and itchgrass (Rottboellia exaltata) were seeded in individual 15-cm plastic pots.
The pots were treated postemergence when the plants had 3 to 4 leaves with 2 to 3 tillers with Compound I formulated in a non-phytotoxic carrier made up of acetone-humectant-water-surfactant (22:1:1:0.05 v/v). The degree of crop injury and weed control was visually rated 27 days after treatment (DAT). Plant injury ratings are based on the scale of 0 to 100 where 0 = no effect, 20 = minimal injury and 100 = complete control.

coffee = assay: Test 6 effect of surfactants, postemergence; assay type: in vivo, Coffea spp; conditions: addition of a surfactant
From the text: The object of this test was to evaluate the effect of surfactants and plant growth stage on the efficacy of the compound of this invention. Plastic windowsill pots were filled with planting medium and seeded with yellow nutsedge (Cyperus esculentus), large crabgrass (Digitaria sanguinalis), goosegrass (Elsusine indica), bermudagrass (Cynodon dactylon), broadleaf signalgrass (Brachiara platyphalla), smooth crabgrass (Digitaria ischaemum), guinea grass (Panicum maximum) and johnsongrass (Sorghum halapense). Coffee (Coffea spp) plants with 2 to 4 branches were included in one test.
Plants were treated postemergence with Compound I formulated with different surfactants or a non-phytotoxic carrier made up of acetone-humectant-water-surfactant.

Bindweed = assay: Test 11 citrus pots, postemergence to the weeds; assay type: in vivo, Convolvulus spp.; conditions: Postemergence 32 g/ha, 0.25% X-77 surfactant, scale 0-100
Method: as §1, §2

Guinea Grass = assay: Test 9 postemergence; assay type: in vivo, Panicum maximum; conditions: 16 g/ha, scale 0-100
Method: Plastic windowsill pots containing planting medium were seeded with bahiagrass, bindweed (Convolvulus spp), guinea grass (Panicum maximum), large crabgrass (Digitaria sanguinalis) and pigweed (Amaranthus spp). Individual 15-cm plastic pots contained sandbur (Cenchrus echinatus), Mikania cordata, Boston fern (Nephrolepis exalata), quackgrass (Agropyron repens), elephantgrass (Pennisetum purpureum) and sowthistle (Sonchus spp) plants.
Plants were treated postemergence with Compound I formulated in a non-phytotoxic solvent. Plants were visually rated 22 days after treatment (DAT). Injury and weed control ratings were based on the scale of 0 to 100 where 0 = no effect, 20 = minimal control and 100 = complete control.

Black mustard = assay: Test 7 postemergence; assay type: in vivo, Brassica nigra; conditions: scale 0-100
Method: as §3, §4

Lalang = assay: Test 9 postemergence; assay type: in vivo; conditions: scale 0-100

Question: Which “Plant Injury Rating 15 DAT” value (Chickweed) does the source give for COC(=O)c1cccnc1S(=O)(=O)NC(=O)Nc1nc(OC)cc(OC)n1 [Compound I, 2-[[(4,6-dimethoxypyrimidin-2-yl)aminocarbonyl]aminosulfonyl]-3-pyridinecarboxylic acid, methyl ester] here?
Answer: 100

Question: And the Injury ratings (Yellow nutsedge)?
Answer: 100

Question: What about the “Plant Injury Rating 18 DAT” value (Kentucky bluegrass; 16 g/ha) of the same compound?
Answer: 100

Question: And the “Plant Injury Rating 18 DAT” value (Kentucky bluegrass; 32 g/ha)?
Answer: 100

Question: And the Injury ratings (Johnsongrass)?
Answer: 100

Question: And the “Plant Injury Rating 18 DAT” value (Ball mustard; 16 g/ha)?
Answer: 100

Question: And the “Plant Injury Rating 18 DAT” value (Ball mustard; 32 g/ha)?
Answer: 100

Question: What about the Injury ratings (Purple nutsedge) of the same compound?
Answer: 100

Question: And the “Plant Injury Rating 27 DAT” value (Large Crabgrass; 8 g/ha)?
Answer: 30

Question: What about the “Plant Injury Rating 27 DAT” value (Large Crabgrass; 16 g/ha) of the same compound?
Answer: 60

Question: What about the “Plant Injury Rating 27 DAT” value (Large Crabgrass; 32 g/ha) of the same compound?
Answer: 80

Question: And the “Plant Injury Rating 27 DAT” value (Large Crabgrass; 64 g/ha)?
Answer: 100

Question: And the safety to coffee (coffee)?
Answer: maintaining safety to coffee

Question: And the Injury ratings (Bindweed)?
Answer: 100

Question: What about the “Plant Injury Rating 22 DAT” value (Guinea Grass) of the same compound?
Answer: 60

Question: And the “Plant Injury Rating 18 DAT” value (Black mustard; 16 g/ha)?
Answer: 100

Question: And the “Plant Injury Rating 18 DAT” value (Black mustard; 32 g/ha)?
Answer: 100

Question: And the “Plant Injury Rating 22 DAT” value (Lalang; 8 g/ha)?
Answer: 0

Question: What about the “Plant Injury Rating 22 DAT” value (Lalang; 16 g/ha) of the same compound?
Answer: 0

Question: And the “Plant Injury Rating 22 DAT” value (Lalang; 32 g/ha)?
Answer: 20
